Measured values taken from patent US6063964A, “5-hydroxymethyl-2-aminotetralins as cardiovascular agents” (Zambon Group S.p.A., priority 1997, dated 2000).

Legend:
[1] = target: T1, dopaminergic receptors D2 (Oryctolagus cuniculus, UniProt G1T1Q0); assay: D2 activity in the rabbit ear artery (REA), electrically stimulated isolated artery rings; conditions: rabbit central ear artery rings, electrically stimulated (10 Hz); cumulative administration; agonistic activity at peak of effect; read-out: D2 activity (REA) expressed as pD2, i.e. -logEC50 (converted)
T1 construct: The central ear artery was cut into 3 mm-rings; from tissue; host or cells: central ear artery rings of male New Zealand rabbits
Procedure: Evaluation of the D2 activity in the rabbit ear artery (REA)
Artery rings were prepared following the method described by Steinsland et al., Science, 1978, 443, 199, modified as follows.
Male New Zealand rabbits (weighing 2.5-3 Kg) were sacrificed by a pentobarbital intravenous injection and bled. The central ear artery was cut into 3 mm-rings.
The samples were placed into a 25 ml-bath containing a Krebs solution (mM/l): sodium chloride 118, potassium chloride 4.7, calcium chloride 2.5, magnesium sulphate 1.2, sodium hydrocarbonate 25, potassium biphosphate 1.2, glucose 11.1, balanced with oxygen 95%/carbon dioxide 5% and maintained at 35±1° C. The Krebs solution was added with EDTA (10 μM) to prevent the cathecolamine oxidation, with desipramine (0,1 μM) and corticosterone (30 μM) to stop the neuronal and extraneuronal cathecolamine re-uptake.
The samples were electrically stimulated (10 Hz, 1 msec., 40-80 mA, 500 msec long) at intervals of 5 minutes.
(§1) The tested compounds were cumulatively administered.
(§2) Dopamine was used as reference compound.

[2] = target: dopaminergic receptors D1 (Oryctolagus cuniculus, UniProt G1SML2); assay: D1 activity on the rabbit splenic artery (RSA), isolated artery rings contracted with U46619; conditions: cumulative administration, agonistic activity at peak of effect
Procedure: Tests of dopaminergic activity on isolated tissues Evaluation of the D1 activity on the rabbit splenic artery (RSA)
Artery rings were prepared according to Semeraro et al., Naunyn. Schnied. Arch. […] These were contracted with U46619 (9,11-dideoxy-11α, 9α -epoxy-methanprostaglandine F2 α) at a submaximal concentration of […].
as §1, §2

T1 sequence (G1T1Q0 1-443): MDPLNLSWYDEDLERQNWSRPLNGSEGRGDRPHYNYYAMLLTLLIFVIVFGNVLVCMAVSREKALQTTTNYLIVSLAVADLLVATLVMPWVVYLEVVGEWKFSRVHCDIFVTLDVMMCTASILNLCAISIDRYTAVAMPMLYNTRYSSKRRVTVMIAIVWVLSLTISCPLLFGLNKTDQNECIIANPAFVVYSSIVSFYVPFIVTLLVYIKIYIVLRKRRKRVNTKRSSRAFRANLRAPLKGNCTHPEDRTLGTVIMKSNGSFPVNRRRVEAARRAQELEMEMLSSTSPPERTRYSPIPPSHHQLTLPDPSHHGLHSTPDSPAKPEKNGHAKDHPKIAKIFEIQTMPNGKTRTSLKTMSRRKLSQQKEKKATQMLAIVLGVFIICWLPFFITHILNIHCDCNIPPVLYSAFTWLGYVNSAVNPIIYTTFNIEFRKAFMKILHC
Sequence of dopaminergic receptors D1 (G1SML2 1-448): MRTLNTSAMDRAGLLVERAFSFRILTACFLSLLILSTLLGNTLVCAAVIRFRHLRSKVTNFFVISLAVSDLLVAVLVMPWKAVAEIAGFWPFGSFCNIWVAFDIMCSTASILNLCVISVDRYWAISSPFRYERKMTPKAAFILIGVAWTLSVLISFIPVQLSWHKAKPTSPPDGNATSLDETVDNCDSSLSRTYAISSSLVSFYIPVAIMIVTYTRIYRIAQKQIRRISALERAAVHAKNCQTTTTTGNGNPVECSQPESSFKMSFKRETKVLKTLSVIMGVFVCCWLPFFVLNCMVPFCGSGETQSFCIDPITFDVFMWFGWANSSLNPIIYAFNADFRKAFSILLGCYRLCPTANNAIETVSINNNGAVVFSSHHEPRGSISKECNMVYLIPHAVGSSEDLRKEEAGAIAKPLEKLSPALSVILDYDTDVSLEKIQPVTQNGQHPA

Compound | EC50 [1] [nM] | D1 activity (RSA) expressed as pD2, i.e. -logEC50 [2]
NCCc1ccc(O)c(O)c1 [Dopamine, reference compound] | 15.8 | –
CCCN(CCC)[C@H]1CCc2c(ccc(O)c2CO)C1.O=C(O)/C=C\C(=O)O [Example 6, (S)-N,N-dipropyl-6-hydroxy-5-hydroxymethyl-1,2,3,4-tetrahydro-2-naphthylamine maleate] | 10 | 6.0
